Source: PubChem BioAssay (NCI)
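Where inhibition never reached the appropriate level, the endpoint shown equals the highest concentration tested. Otherwise, values were interpolated linearly from a five-concentration, 48-hour dose response in 96-well plates. TGI is the concentration that stops growth completely.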

Each compound was assayed on HT29 colon (assay: inhibition of tumour cell growth, NCI panel, 48 h).

Row | SMILES | TGI
1 | Clc1ccc(OCc2nnc(CCCCCCCCc3nnc(COc4ccc(Cl)cc4)n3Nc3ccccc3)n2Nc2ccccc2)cc1 | 34.3 µM
2 | COc1cc(CN2CCCCC2)cc2cc(C(=O)O)c(=O)oc12 | > 100 µM
3 | Brc1ccc2c(-c3csc(-c4c[nH]c5cc(Br)ccc45)n3)c[nH]c2c1 | 29.2 µM
4 | Cc1nn(-c2cc(Cl)ccc2[N+](=O)[O-])c(C)c1Cl | > 100 µM
5 | CC1(C)C=C(S(=O)(=O)c2ccccc2)Oc2ccccc2O1 | > 100 µM

The compounds below were run on SK-OV-3 ovarian (assay: inhibition of tumour cell growth, NCI panel, 48 h).

Row | SMILES | TGI
6 | Clc1ccc(OCc2nnc(CCCCCCCCc3nnc(COc4ccc(Cl)cc4)n3Nc3ccccc3)n2Nc2ccccc2)cc1 | > 100 µM
7 | COc1cc(CN2CCCCC2)cc2cc(C(=O)O)c(=O)oc12 | > 100 µM
8 | Brc1ccc2c(-c3csc(-c4c[nH]c5cc(Br)ccc45)n3)c[nH]c2c1 | 97.4 µM
9 | Cc1nn(-c2cc(Cl)ccc2[N+](=O)[O-])c(C)c1Cl | > 100 µM
10 | CC1(C)C=C(S(=O)(=O)c2ccccc2)Oc2ccccc2O1 | > 100 µM

Each compound was assayed on 786-0 renal (assay: inhibition of tumour cell growth, NCI panel, 48 h).

Row | SMILES | TGI
11 | Clc1ccc(OCc2nnc(CCCCCCCCc3nnc(COc4ccc(Cl)cc4)n3Nc3ccccc3)n2Nc2ccccc2)cc1 | 58 µM
12 | COc1cc(CN2CCCCC2)cc2cc(C(=O)O)c(=O)oc12 | > 100 µM
13 | Brc1ccc2c(-c3csc(-c4c[nH]c5cc(Br)ccc45)n3)c[nH]c2c1 | > 67.3 µM
14 | Cc1nn(-c2cc(Cl)ccc2[N+](=O)[O-])c(C)c1Cl | > 100 µM
15 | CC1(C)C=C(S(=O)(=O)c2ccccc2)Oc2ccccc2O1 | > 100 µM

The compounds below were run on HCT-15 colon (assay: inhibition of tumour cell growth, NCI panel, 48 h).

Row | SMILES | TGI
16 | Clc1ccc(OCc2nnc(CCCCCCCCc3nnc(COc4ccc(Cl)cc4)n3Nc3ccccc3)n2Nc2ccccc2)cc1 | > 100 µM
17 | COc1cc(CN2CCCCC2)cc2cc(C(=O)O)c(=O)oc12 | > 100 µM
18 | Brc1ccc2c(-c3csc(-c4c[nH]c5cc(Br)ccc45)n3)c[nH]c2c1 | > 89.9 µM
19 | Cc1nn(-c2cc(Cl)ccc2[N+](=O)[O-])c(C)c1Cl | > 100 µM
20 | CC1(C)C=C(S(=O)(=O)c2ccccc2)Oc2ccccc2O1 | > 100 µM

These compounds were tested on MDA-MB-231 breast (assay: inhibition of tumour cell growth, NCI panel, 48 h).

Row | SMILES | TGI
21 | Clc1ccc(OCc2nnc(CCCCCCCCc3nnc(COc4ccc(Cl)cc4)n3Nc3ccccc3)n2Nc2ccccc2)cc1 | > 100 µM
22 | COc1cc(CN2CCCCC2)cc2cc(C(=O)O)c(=O)oc12 | > 100 µM
23 | Brc1ccc2c(-c3csc(-c4c[nH]c5cc(Br)ccc45)n3)c[nH]c2c1 | > 70.6 µM
24 | Cc1nn(-c2cc(Cl)ccc2[N+](=O)[O-])c(C)c1Cl | > 100 µM
25 | CC1(C)C=C(S(=O)(=O)c2ccccc2)Oc2ccccc2O1 | > 100 µM

The compounds below were run on UACC-257 melanoma (assay: inhibition of tumour cell growth, NCI panel, 48 h).

Row | SMILES | TGI
26 | Clc1ccc(OCc2nnc(CCCCCCCCc3nnc(COc4ccc(Cl)cc4)n3Nc3ccccc3)n2Nc2ccccc2)cc1 | > 100 µM
27 | COc1cc(CN2CCCCC2)cc2cc(C(=O)O)c(=O)oc12 | > 100 µM
28 | Brc1ccc2c(-c3csc(-c4c[nH]c5cc(Br)ccc45)n3)c[nH]c2c1 | > 100 µM
29 | Cc1nn(-c2cc(Cl)ccc2[N+](=O)[O-])c(C)c1Cl | > 100 µM
30 | CC1(C)C=C(S(=O)(=O)c2ccccc2)Oc2ccccc2O1 | > 100 µM

The compounds below were run on MALME-3M melanoma (assay: inhibition of tumour cell growth, NCI panel, 48 h).

Row | SMILES | TGI
31 | Clc1ccc(OCc2nnc(CCCCCCCCc3nnc(COc4ccc(Cl)cc4)n3Nc3ccccc3)n2Nc2ccccc2)cc1 | > 65.6 µM
32 | COc1cc(CN2CCCCC2)cc2cc(C(=O)O)c(=O)oc12 | > 100 µM
33 | Brc1ccc2c(-c3csc(-c4c[nH]c5cc(Br)ccc45)n3)c[nH]c2c1 | > 100 µM
34 | Cc1nn(-c2cc(Cl)ccc2[N+](=O)[O-])c(C)c1Cl | > 100 µM
35 | CC1(C)C=C(S(=O)(=O)c2ccccc2)Oc2ccccc2O1 | 75.2 µM

Each compound was assayed on A498 renal (assay: inhibition of tumour cell growth, NCI panel, 48 h).

Row | SMILES | TGI
36 | Clc1ccc(OCc2nnc(CCCCCCCCc3nnc(COc4ccc(Cl)cc4)n3Nc3ccccc3)n2Nc2ccccc2)cc1 | > 100 µM
37 | COc1cc(CN2CCCCC2)cc2cc(C(=O)O)c(=O)oc12 | > 100 µM
38 | Brc1ccc2c(-c3csc(-c4c[nH]c5cc(Br)ccc45)n3)c[nH]c2c1 | > 83.5 µM
39 | Cc1nn(-c2cc(Cl)ccc2[N+](=O)[O-])c(C)c1Cl | > 100 µM
40 | CC1(C)C=C(S(=O)(=O)c2ccccc2)Oc2ccccc2O1 | > 100 µM

What follows are compounds tested on SK-MEL-2 melanoma (assay: inhibition of tumour cell growth, NCI panel, 48 h).

Row | SMILES | TGI
41 | Clc1ccc(OCc2nnc(CCCCCCCCc3nnc(COc4ccc(Cl)cc4)n3Nc3ccccc3)n2Nc2ccccc2)cc1 | 63.5 µM
42 | COc1cc(CN2CCCCC2)cc2cc(C(=O)O)c(=O)oc12 | > 100 µM
43 | Brc1ccc2c(-c3csc(-c4c[nH]c5cc(Br)ccc45)n3)c[nH]c2c1 | > 100 µM
44 | Cc1nn(-c2cc(Cl)ccc2[N+](=O)[O-])c(C)c1Cl | > 100 µM
45 | CC1(C)C=C(S(=O)(=O)c2ccccc2)Oc2ccccc2O1 | > 100 µM

What follows are compounds tested on SNB-75 CNS (assay: inhibition of tumour cell growth, NCI panel, 48 h).

Row | SMILES | TGI
46 | Clc1ccc(OCc2nnc(CCCCCCCCc3nnc(COc4ccc(Cl)cc4)n3Nc3ccccc3)n2Nc2ccccc2)cc1 | > 100 µM
47 | COc1cc(CN2CCCCC2)cc2cc(C(=O)O)c(=O)oc12 | > 100 µM
48 | Brc1ccc2c(-c3csc(-c4c[nH]c5cc(Br)ccc45)n3)c[nH]c2c1 | 66.1 µM
49 | Cc1nn(-c2cc(Cl)ccc2[N+](=O)[O-])c(C)c1Cl | > 100 µM
50 | CC1(C)C=C(S(=O)(=O)c2ccccc2)Oc2ccccc2O1 | 82.3 µM
